Measurements as given in patent publication US9522920B2, “Bromodomain inhibitors and uses thereof” (Constellation Pharmaceuticals, Inc., priority 2010, dated 2016).
Like-named read-outs stand apart in the source and are kept apart here.

Columns and labels:
MYC mRNA = experiment: cMyc RNA quantification assay (QuantiGene) in Raji cells; format: cell-based; settings: Table 7, Raji (Burkitt's lymphoma) cells, 4 h
Experimental: MV4:11 (AML) or Raji (Burkitt's lymphoma) cells were seeded in a 96-well plate and incubated in the presence of various concentrations of compounds for 4 h. Relative mRNA levels were quantitated by using QuantiGene 2.0 assay (Affymetrix) according to the manufacturer's recommendation. Signals were detected by using an Envision plate reader (Perkin-Elmer). Biological duplicates were averaged and normalized to vehicle (DMSO) control to calculate percent MYC mRNA levels.

IL-6 secretion = experiment: Cell-based IL-6 quantification assay (ELISA, Mesoscale) in LPS-stimulated THP-1 cells; settings: read-out: IL6
Experimental: 100,000 THP-1 cells were seeded in RPMI1640-10% FBS in 96-well plates. LPS (E. Coli Invitrogen) in RPMI-10% FBS at a final concentration of 4 μg/mL was added to the wells and the cells are then incubated in the presence of various concentrations of compounds for 16 h. Plates are spun ([…], 5 min), an aliquot of 25 uL supernatant is transferred in to an ELISA plate (Mesoscale technology, MSD) and the detection of IL-6 is performed using manufacturer's instructions. The amount of cells in each well is assessed using CellTiter-Glo® (Promega). The ratio of ELISA value/CellTiter-Glo value is used to calculate the percent of inhibition of IL-6 secretion.

BRD4(BD1) = target: T1, BRD4(BD1) (Homo sapiens, UniProt O60885); experiment: BRD4 AlphaLisa binding assay (Alphascreen)
T1 construct: His; made in house
Experimental: Specifically, in a 384 well ProxiPlate BRD4(BD1) (30 nM final) was combined with peptide (200 nM final) in 40 mM HEPES (pH 7.0), 40 mM NaCl, 1 mM DTT, 0.01% (w/v) BSA, and 0.008% (w/v) Brij-35 either in the presence of DMSO (final 1.2% DMSO) or compound dilution series in DMSO. After 20 minute incubation at room temperature Alpha streptavidin donor beads and AlphaLisa anti-Flag acceptor beads were added to a final concentration of 10 ug/mL each. After three hours equilibration plates were read on an Envision instrument and IC50s calculated using a four parameter non-linear curve fit.

[1] = Homo sapiens, THP-1, 16 h, Table 7, THP-1 cells, LPS 4 μg/mL, 16 h, normalised to CellTiter-Glo
[2] = Table 6, BRD4(BD1) 30 nM, H4-tetraacetyl peptide 200 nM, read-out: BRD4 Alphascreen IC50
[3] = Table 7, THP-1 cells, LPS 4 μg/mL, 16 h, normalised to CellTiter-Glo
[4] = Table 14, THP-1 cells, LPS, 16 h
[5] = Table 14, BRD4 AlphaLisa Binding Assay, read-out: Alpha screen
[6] = Homo sapiens, THP-1, 16 h, Table 14, THP-1 cells, LPS, 16 h

| IC50 (MYC mRNA; Homo sapiens) [nM] | IC50 (BRD4(BD1); [2]) [nM] | Structure (SMILES) | IC50 (IL-6 secretion; [1]) [nM] | other results |
| --- | --- | --- | --- | --- |
| < 500 | < 500 | Cc1noc2c1-c1sc(C)c(C)c1C(c1ccc(N)nc1)=NC2CC(N)=O (stereo not drawn) [Compound 102] | < 500 | – |
| < 500 | < 500 | Cc1noc2c1-c1sc(C)c(C)c1C(c1ccc(Cl)cn1)=NC2CC(N)=O (stereo not drawn) [Compound 103] | < 500 | – |
| < 500 | < 500 | Cc1noc2c1-c1sc(C)c(C)c1C(c1ccccc1)=NC2CC(N)=O (stereo not drawn) [Compound 108] | < 500 | – |
| < 500 | < 500 | Cc1noc2c1-c1sc(C)c(C)c1C(c1ccc(F)cc1)=NC2CC(N)=O (stereo not drawn) [Compound 109] | < 500 | – |
| < 500 | < 500 | Cc1cc(Cl)ccc1C1=NC(CC(N)=O)c2onc(C)c2-c2sc(C)c(C)c21 (stereo not drawn) [Compound 112] | < 500 | – |
| < 500 | < 500 | CCNC(=O)CC1N=C(c2ccc(C#N)cc2)c2c(sc(C)c2C)-c2c(C)noc21 (stereo not drawn) [Compound 113] | < 500 | – |
| < 500 | < 500 | Cc1noc2c1-c1sc(C)c(C)c1C(c1ccc(C#N)cc1)=NC2CC(N)=O (stereo not drawn) [Compound 115] | < 500 | – |
| < 500 | < 500 | Cc1noc2c1-c1sc(C)c(C)c1C(c1ccc(C(N)=O)cc1)=NC2CC(N)=O (stereo not drawn) [Compound 116] | < 500 | – |
| < 500 | < 500 | CC(=O)Nc1ccc(C2=NC(CC(N)=O)c3onc(C)c3-c3sc(C)c(C)c32)cc1 (stereo not drawn) [Compound 118] | < 500 | – |
| 500 to 1000 | < 500 | Cc1noc2c1-c1sc(C)c(C)c1C(c1ccc(=O)n(C)c1)=NC2CC(N)=O (stereo not drawn) [Compound 120] | < 500 | – |
| > 1000 | < 500 | CCCC1=NC(CC(N)=O)c2onc(C)c2-c2sc(C)c(C)c21 (stereo not drawn) [Compound 124] | 500 to 1000 | – |
| > 1000 | < 500 | Cc1noc2c1-c1sc(C)c(C)c1C(C1CCCCC1)=NC2CC(N)=O (stereo not drawn) [Compound 126] | < 500 | – |
| – | < 500 | Cc1cccc2c1C(c1ccncc1)=N[C@@H](CC(N)=O)c1onc(C)c1-2 [Compound 131] | – | IC50 (MYC mRNA): < 500 nM; IC50 (IL-6 secretion; [3]): < 500 nM |
| – | < 500 | Cc1cccc2c1C(c1ccc(Cl)cn1)=N[C@@H](CC(N)=O)c1onc(C)c1-2 [Compound 133] | – | IC50 (MYC mRNA): 500 to 1000 nM; IC50 (IL-6 secretion; [3]): < 500 nM |
| – | < 500 | Cc1cccc2c1C(c1ccc(C(N)=O)cc1)=N[C@@H](CC(N)=O)c1onc(C)c1-2 [Compound 134] | – | IC50 (MYC mRNA): 500 to 1000 nM; IC50 (IL-6 secretion; [3]): < 500 nM |
| – | < 500 | COc1ccc(C2=N[C@@H](CC(N)=O)c3onc(C)c3-c3cccc(C)c32)cc1 [Compound 135] | – | IC50 (MYC mRNA): < 500 nM; IC50 (IL-6 secretion; [3]): < 500 nM |
| 500 to 1000 | < 500 | Cc1noc2c1-c1cccc(Cl)c1C(c1ccncc1)=N[C@H]2CC(N)=O [Compound 137] | < 500 | – |
| – | < 500 | Cc1noc2c1-c1cccc(Cl)c1C(c1ccc(F)cc1)=N[C@H]2CC(N)=O [Compound 138] | – | IC50 (MYC mRNA): < 500 nM; IC50 (IL-6 secretion; [3]): < 500 nM |
| – | < 500 | Cc1noc2c1-c1cccc(Cl)c1C(c1ccc(C#N)cc1)=N[C@H]2CC(N)=O [Compound 140] | – | IC50 (MYC mRNA): < 500 nM; IC50 (IL-6 secretion; [3]): < 500 nM |
| – | < 500 | Cc1noc2c1-c1ccc(Cl)cc1C(c1ccc(Cl)cc1)=N[C@H]2CC(N)=O [Compound 141] | – | IC50 (MYC mRNA): > 1000 nM; IC50 (IL-6 secretion; [3]): < 500 nM |

| IC50 (MYC mRNA; Homo sapiens) [nM] | IC50 (BRD4(BD1); [2]) [nM] | Structure (SMILES) | IC50 (IL-6 secretion; [1]) [nM] | other results |
| --- | --- | --- | --- | --- |
| – | < 500 | Cc1noc2c1-c1ccc(Cl)cc1C(c1ccc(C#N)cc1)=N[C@H]2CC(N)=O [Compound 142] | – | IC50 (MYC mRNA): 500 to 1000 nM; IC50 (IL-6 secretion; [3]): < 500 nM |
| – | < 500 | CCNC(=O)C[C@@H]1N=C(c2ccc(C#N)cc2)c2cc(Cl)ccc2-c2c(C)noc21 [Compound 143] | – | IC50 (MYC mRNA): 500 to 1000 nM; IC50 (IL-6 secretion; [3]): < 500 nM |
| < 500 | < 500 | COc1ccc(C2=N[C@@H](CC(N)=O)c3onc(C)c3-c3ccccc32)cc1 [Compound 146] | < 500 | – |
| – | < 500 | COc1cccc(C2=N[C@@H](CC(N)=O)c3onc(C)c3-c3ccccc32)c1 [Compound 147] | – | IC50 (MYC mRNA): 500 to 1000 nM; IC50 (IL-6 secretion; [3]): < 500 nM |
| – | < 500 | CCNC(=O)C[C@@H]1N=C(c2ccc(C#N)cc2)c2ccccc2-c2c(C)noc21 [Compound 149] | – | IC50 (MYC mRNA): < 500 nM; IC50 (IL-6 secretion; [3]): < 500 nM |
| – | < 500 | COCCNC(=O)C[C@@H]1N=C(c2ccc(C#N)cc2)c2ccccc2-c2c(C)noc21 [Compound 150] | – | IC50 (MYC mRNA): < 500 nM; IC50 (IL-6 secretion; [3]): < 500 nM |
| > 1000 | > 1000 | Cc1noc2c1-c1ccccc1C(N1CCOCC1)=N[C@H]2CC(N)=O [Compound 152] | > 1000 | – |
| < 500 | < 500 | CCOC(=O)NC1N=C(c2ccc(Cl)cc2)c2ccccc2-c2c1noc2C (stereo not drawn) [Compound 155, Ethyl (6-(4-chlorophenyl)-1-methyl-4H-benzo[c]isoxazolo[4,3-e]azepin-4-yl)carbamate] | 500 to 1000 | – |
| < 500 | < 500 | CCNC(=O)C[C@@H]1N=C(c2ccc(Cl)cc2)c2ccccc2-c2c(C)noc21 [Compound 159, 2-((4S)-6-(4-chlorophenyl)-1-methyl-4H-benzo[c]isoxazolo[4,5-e]azepin-4-yl)-N-ethylacetamide] | < 500 | – |
| < 500 | < 500 | CCNC(=O)C[C@@H]1N=C(c2ccc(Cl)cc2)c2cc(OC)ccc2-c2c(C)noc21 [Compound 160, 2-((4S)-6-(4-chlorophenyl)-8-methoxy-1-methyl-4H-benzo[c]isoxazolo[4,5-e]azepin-4-yl)-N-ethylacetamide] | < 500 | – |
| > 1000 | < 500 | CCNC(=O)C[C@@H]1N=C(c2ccc(Cl)cc2)c2ccccc2-c2c1noc2C [Compound 163, 2-((4S)-6-(4-chlorophenyl)-1-methyl-4H-benzo[c]isoxazolo[4,3-e]azepin-4-yl)-N-ethylacetamide] | < 500 | – |
| – | < 500 | COC(=O)NC[C@@H]1N=C(c2ccc(Cl)cc2)c2c(sc(C)c2C)-c2c(C)noc21 [Compound 183, Methyl (((6S)-4-(4-chlorophenyl)-2,3,9-trimethyl-6H-isoxazolo[5,4-c]thieno[2,3-e]azepin-6-yl)methyl)carbamate] | 500 to 1000 | – |
| – | > 1000 | Cc1noc2c1-c1sc(C)c(C)c1C(Nc1ccc(Cl)cc1)=N[C@H]2CC(N)=O [Compound 185, 2-((6S)-4-((4-Chlorophenyl)amino)-2,3,9-trimethyl-6H-isoxazolo[5,4-c]thieno[2,3-e]azepin-6-yl)acetamide] | > 1000 | – |
| – | – | Cc1noc2c1-c1sc(C)c(C)c1C(OC(C)C)=N[C@H]2CC(N)=O [Compound 193] | – | IC50 (IL-6 secretion; [4]): > 1000 nM; IC50 (BRD4(BD1); [5]): 500 to 1000 nM |
| – | – | Cc1noc2c1-c1sc(C)c(C)c1C(C1CCN(C)CC1)=N[C@H]2CC(N)=O [Compound 194] | – | IC50 (IL-6 secretion; [4]): > 1000 nM; IC50 (BRD4(BD1); [5]): > 1000 nM |
| – | – | Cc1noc2c1-c1sc(C)c(C)c1C(C(C)c1ccccc1)=N[C@H]2CC(N)=O (stereo partly drawn) [Compound 195] | – | IC50 (IL-6 secretion; [4]): > 1000 nM; IC50 (BRD4(BD1); [5]): > 1000 nM |
| – | – | CC(=O)NC1N=C(c2ccc(C#N)cc2)c2ccccc2-c2c(C)noc21 (stereo not drawn) [Compound 263, N-(6-(4-cyanophenyl)-1-methyl-4,1-benzo[c]isoxazolo[4,5-e]azepin-4-yl)acetamide] | – | IC50 (IL-6 secretion; [6]): < 500 nM; IC50 (BRD4(BD1); [5]): < 500 nM |
| – | – | Cc1noc2c1-c1c[nH]c(=O)cc1C(c1ccc(Cl)cc1)=NC2 [Compound 266, 6-(4-Chlorophenyl)-1-methyl-4H-isoxazolo[5,4-c]pyrido[3,4-e]azepin-8(9H)-one] | – | IC50 (IL-6 secretion; [6]): < 500 nM; IC50 (BRD4(BD1); [5]): < 500 nM |
| – | – | CCNC(=O)NC1N=C(c2ccc(C#N)cc2)c2ccccc2-c2c(C)noc21 (stereo not drawn) [compound 261] | – | IC50 (IL-6 secretion; [4]): < 500 nM; IC50 (BRD4(BD1); [5]): < 500 nM |
| – | – | Cc1noc2c1-c1ccccc1C(c1ccc(C#N)cc1)=NC2NC(=O)C(C)C (stereo not drawn) [compound 264] | – | IC50 (IL-6 secretion; [4]): > 1000 nM; IC50 (BRD4(BD1); [5]): > 1000 nM |

| Structure (SMILES) | IC50 (MYC mRNA; Homo sapiens) [nM] | IC50 (BRD4(BD1); [2]) [nM] | IC50 (IL-6 secretion; [1]) [nM] | other results |
| --- | --- | --- | --- | --- |
| Cc1noc2c1-c1ccnc(N)c1C(c1ccc(Cl)cc1)=NC2 [Compound 172, 6-(4-Chlorophenyl)-1-methyl-4H-isoxazolo[5,4-c]pyrido[4,3-e]azepin-7-amine] | 500 to 1000 | < 500 | – | IC50 (IL-6 secretion; Homo sapiens, THP-1, 16 h): < 500 nM |
